# Experimental data reported in patent US9931347B2, “Pharmaceutical compound” (IOmet Pharma Ltd., priority 2013, dated 2018).
# What was measured:
# [1] = molecular target: T1, IDO (SKOV3 human ovarian adenocarcinoma cells, IFN-γ induced) (Homo sapiens, UniProt P14902); test: SKOV3 Kynurenine cell based assay; conditions: IDO induced by 500 ng/ml IFN-γ, 500 μM L-tryptophan, 48 hours
# T1 construct: IDO expression was induced in the SKOV3 cells by the addition of 500 ng/ml IFN-γ; endogenous in cells; host or cells: SKOV3 human ovarian adenocarcinoma cells, induced with IFN-γ
# T1 sequence (P14902 whole entry): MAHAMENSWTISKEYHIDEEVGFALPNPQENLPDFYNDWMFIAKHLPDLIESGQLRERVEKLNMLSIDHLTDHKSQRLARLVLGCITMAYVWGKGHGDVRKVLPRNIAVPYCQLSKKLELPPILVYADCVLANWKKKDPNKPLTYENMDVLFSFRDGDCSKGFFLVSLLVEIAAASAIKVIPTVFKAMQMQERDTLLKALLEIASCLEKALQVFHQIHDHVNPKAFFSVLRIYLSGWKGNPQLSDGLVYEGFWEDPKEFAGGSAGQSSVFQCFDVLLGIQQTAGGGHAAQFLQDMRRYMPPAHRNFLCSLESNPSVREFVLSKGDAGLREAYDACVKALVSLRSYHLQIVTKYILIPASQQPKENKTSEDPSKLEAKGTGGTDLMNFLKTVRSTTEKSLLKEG
# Procedure: (§1) Exemplary compounds of the invention were prepared, and tested to determine their effect as TDO and/or IDO inhibitors. Two different assays were employed: 1. a cell-based assay for detecting the effect of test compounds on kynurenine production in two different cancer cell types. This assay utilised cancer cells which expressed either TDO or IDO and as such was used as a means of testing compound activity at these two enzymes in a cell-based context. 2. a TDO and IDO biochemical coupled assay which utilised recombinantly produced and purified TDO and IDO enzymes in combination with the enzyme formamidase. This coupled enzyme system allowed conversion of N-formylkynurenine produced by TDO or IDO activity to kynurenine which was then quantified by fluorescence following addition of Erhlich's Reagent The protocols for these are set out below.
# (§2) A172 (human glioblastoma) and SKOV3 (human ovarian adenocarcinoma) cells were seeded in a 96 well plate at 30,000 or 40,000 cells per well respectively in phenol red-free RPMI supplemented with 10% FCS, 2 mM L-glutamine and 500 μM L-tryptophan. IDO expression was induced in the SKOV3 cells by the addition of 500 ng/ml IFN-γ. Cells were incubated at 37° C. with or without the addition of test compound. After 48 hours, the cells were removed by centrifugation and Erhlich's reagent was added to the supernatant.
# [2] = molecular target: T2, TDO (A172 human glioblastoma cells) (Homo sapiens, UniProt P48775); test: A172 Kynurenine cell based assay; conditions: 500 μM L-tryptophan, 48 hours, kynurenine by Erhlich's reagent
# T2 construct: This assay utilised cancer cells which expressed either TDO or IDO; endogenous in cells; host or cells: A172 human glioblastoma cells
# T2 sequence (P48775 whole entry): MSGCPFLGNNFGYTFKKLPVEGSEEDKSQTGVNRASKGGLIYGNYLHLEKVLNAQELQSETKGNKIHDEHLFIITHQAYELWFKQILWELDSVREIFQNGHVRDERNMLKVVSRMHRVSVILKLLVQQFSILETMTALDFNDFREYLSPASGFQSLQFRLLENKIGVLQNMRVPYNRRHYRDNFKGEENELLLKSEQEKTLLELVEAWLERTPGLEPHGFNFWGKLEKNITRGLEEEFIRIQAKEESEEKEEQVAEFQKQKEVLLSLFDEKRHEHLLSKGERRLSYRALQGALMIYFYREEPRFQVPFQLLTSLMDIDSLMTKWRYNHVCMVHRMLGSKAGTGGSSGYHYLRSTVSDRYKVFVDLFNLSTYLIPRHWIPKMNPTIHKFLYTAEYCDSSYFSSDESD
# Procedure: as §1
# as §2, with “supernatant. The Erhlich's reagent was incubated for 5 minutes before the absorbance was read at 490 nm.” for “supernatant.”
Compound,SKOV3 Kynurenine cell based assay pIC50 [1],A172 Kynurenine cell based assay pIC50 [2]
CS(=O)(=O)N1CC=C(c2c[nH]c3cc(F)cc(F)c23)CC1 [Compound 215],+ (+ = pIC50 4.00-4.99),++ (++ = pIC50 5.00-5.99)
Cn1nc(-c2ccccc2)cc1C(=O)N1CCC(c2c[nH]c3cc(F)ccc23)CC1 [Compound 279],+ (+ = pIC50 4.00-4.99),+ (+ = pIC50 4.00-4.99)
CS(=O)(=O)N1CCC(c2c[nH]c3ccccc23)C(O)C1 (stereo not drawn) [Compound 187],+− (+− = pIC50 <4.00),+ (+ = pIC50 4.00-4.99)
O=C1CN(c2c[nH]c3ccccc23)CCN1 [Compound 188],+− (+− = pIC50 <4.00),++ (++ = pIC50 5.00-5.99)
CC(=O)N1CCC(c2c[nH]c3ccc(C#N)cc23)CC1 [Compound 233],+ (+ = pIC50 4.00-4.99),+ (+ = pIC50 4.00-4.99)
CC(=O)N1CCC(c2c[nH]c3cnccc23)CC1 [Compound 203],+ (+ = pIC50 4.00-4.99),+ (+ = pIC50 4.00-4.99)
CN(C)CCOc1ccc2c(C3=CCN(S(C)(=O)=O)CC3)c[nH]c2c1 [Compound 254],+ (+ = pIC50 4.00-4.99),+ (+ = pIC50 4.00-4.99)
CCCn1cc(C(=O)N2CCC(c3c[nH]c4cc(F)ccc34)CC2)c(C)n1 [Compound 280],+ (+ = pIC50 4.00-4.99),++ (++ = pIC50 5.00-5.99)
CS(=O)(=O)N1CCC(c2c[nH]c3ccc(C(F)(F)F)cc23)CC1 [Compound 240],++ (++ = pIC50 5.00-5.99),+ (+ = pIC50 4.00-4.99)
Fc1ccc2c(C3CCN(c4ccncc4)CC3)c[nH]c2c1 [Compound 301],+ (+ = pIC50 4.00-4.99),+ (+ = pIC50 4.00-4.99)
CC(=O)N1CC=C(c2c[nH]c3ccc(C#N)cc23)CC1 [Compound 225],+ (+ = pIC50 4.00-4.99),+ (+ = pIC50 4.00-4.99)
CS(=O)(=O)N1CCC(c2c[nH]c3ccc(C#N)cc23)CC1 [Compound 177],+ (+ = pIC50 4.00-4.99),+ (+ = pIC50 4.00-4.99)
O=C(C1CC(=O)N(C2CCCC2)C1)N1CCC(c2c[nH]c3cc(F)ccc23)CC1 (stereo not drawn) [Compound 276],+ (+ = pIC50 4.00-4.99),+ (+ = pIC50 4.00-4.99)
CC(=O)N1CCC(c2c[nH]c3cc(F)c(Cl)cc23)CC1 [Compound 252],+ (+ = pIC50 4.00-4.99),+ (+ = pIC50 4.00-4.99)
CCN(CC)S(=O)(=O)N1CCC(c2c[nH]c3ccccc23)CC1 [Compound 217],+ (+ = pIC50 4.00-4.99),+ (+ = pIC50 4.00-4.99)
COCCN1CC(C(=O)N2CCC(c3c[nH]c4cc(F)ccc34)CC2)CC1=O (stereo not drawn) [Compound 283],+ (+ = pIC50 4.00-4.99),+ (+ = pIC50 4.00-4.99)
CS(=O)(=O)N1CCC(c2c[nH]c3cc(Cl)c(F)cc23)CC1 [Compound 243],+ (+ = pIC50 4.00-4.99),+ (+ = pIC50 4.00-4.99)
CC(=O)N1CC=C(c2c[nH]c3ccc(C(F)(F)F)cc23)CC1 [Compound 229],+ (+ = pIC50 4.00-4.99),+ (+ = pIC50 4.00-4.99)
O=C1CCC2CN(c3c[nH]c4ccccc34)CCN12 (stereo not drawn) [Compound 190],+− (+− = pIC50 <4.00),++ (++ = pIC50 5.00-5.99)
CC(=O)N1CCC(c2c[nH]c3cc(C(F)(F)F)ccc23)CC1 [Compound 232],+ (+ = pIC50 4.00-4.99),+ (+ = pIC50 4.00-4.99)
CN(C)S(=O)(=O)N1CCC(c2c[nH]c3cc(F)ccc23)CC1 [Compound 250],+ (+ = pIC50 4.00-4.99),++ (++ = pIC50 5.00-5.99)

Compound,SKOV3 Kynurenine cell based assay pIC50 [1],A172 Kynurenine cell based assay pIC50 [2]
CC(=O)N1CC=C(c2c[nH]c3cc(Cl)c(F)cc23)CC1 [Compound 228],+ (+ = pIC50 4.00-4.99),++ (++ = pIC50 5.00-5.99)
CC1(C)CC(c2c[nH]c3cc(F)ccc23)CCN1S(C)(=O)=O (stereo not drawn) [Compound 317],+ (+ = pIC50 4.00-4.99),++ (++ = pIC50 5.00-5.99)
CC(=O)N1CCC(c2c[nH]c3ccc(Cl)cc23)CC1 [Compound 238],+ (+ = pIC50 4.00-4.99),+ (+ = pIC50 4.00-4.99)
O=S(=O)(N1CCCC1)N1CCC(c2c[nH]c3ccccc23)CC1 [Compound 213],+ (+ = pIC50 4.00-4.99),+ (+ = pIC50 4.00-4.99)
CN1CC2CN(c3c[nH]c4ccccc34)CCN2C1=O (stereo not drawn) [Compound 192],+− (+− = pIC50 <4.00),+ (+ = pIC50 4.00-4.99)
CS(=O)(=O)N1CC=C(c2c[nH]c3cc(F)c(Cl)cc23)CC1 [Compound 248],+ (+ = pIC50 4.00-4.99),++ (++ = pIC50 5.00-5.99)
O=S(=O)(N1CCC(c2c[nH]c3cc(F)ccc23)CC1)C(F)(F)F [Compound 296],+ (+ = pIC50 4.00-4.99),++ (++ = pIC50 5.00-5.99)
CC(=O)N1CC=C(c2c[nH]c3c(F)cc(F)cc23)CC1 [Compound 231],+ (+ = pIC50 4.00-4.99),+ (+ = pIC50 4.00-4.99)
CC(=O)N1CCC(c2c[nH]c3ccc(C(F)(F)F)cc23)CC1 [Compound 241],+ (+ = pIC50 4.00-4.99),+ (+ = pIC50 4.00-4.99)
O=C(N1CCC(c2c[nH]c3cc(F)ccc23)CC1)C1(c2ccccc2)CC1 [Compound 281],+ (+ = pIC50 4.00-4.99),+ (+ = pIC50 4.00-4.99)
CC(=O)N1CCN(c2c[nH]c3ccccc23)CC1(C)C [Compound 299],+ (+ = pIC50 4.00-4.99),++ (++ = pIC50 5.00-5.99)
CC(=O)N1CCC(c2c[nH]c3ccc(OCc4ccccc4)cc23)CC1 [Compound 208],+ (+ = pIC50 4.00-4.99),+ (+ = pIC50 4.00-4.99)
CCCC(=O)N1CCC(c2c[nH]c3cc(F)ccc23)CC1 [Compound 270],+ (+ = pIC50 4.00-4.99),++ (++ = pIC50 5.00-5.99)
CS(=O)(=O)N1CCC(c2c[nH]c3cc(Cl)ccc23)CC1 [Compound 244],+ (+ = pIC50 4.00-4.99),+ (+ = pIC50 4.00-4.99)
CC(=O)N1CCC(c2c[nH]c3cc(F)ccc23)CC1(C)C (stereo not drawn) [Compound 316],+ (+ = pIC50 4.00-4.99),++ (++ = pIC50 5.00-5.99)
CC(=O)N1CC=C(c2c[nH]c3cc(OCCN(C)C)ccc23)CC1 [Compound 255],+ (+ = pIC50 4.00-4.99),++ (++ = pIC50 5.00-5.99)
COc1cccc(C(=O)N2CCC(c3c[nH]c4cc(F)ccc34)CC2)n1 [Compound 273],+ (+ = pIC50 4.00-4.99),+ (+ = pIC50 4.00-4.99)
CC(=O)N1CC=C(c2c[nH]c3cc(C(F)(F)F)ccc23)CC1 [Compound 223],+ (+ = pIC50 4.00-4.99),+ (+ = pIC50 4.00-4.99)
CS(=O)(=O)N1CCC(c2c[nH]c3cc(F)c(Cl)cc23)CC1 [Compound 253],+ (+ = pIC50 4.00-4.99),+ (+ = pIC50 4.00-4.99)
CS(=O)(=O)N1CCC(c2c[nH]c3ccc(Cl)cc23)CC1 [Compound 239],++ (++ = pIC50 5.00-5.99),++ (++ = pIC50 5.00-5.99)
CC(C)S(=O)(=O)N1CCC(c2c[nH]c3cc(F)ccc23)CC1 [Compound 289],+ (+ = pIC50 4.00-4.99),++ (++ = pIC50 5.00-5.99)
